Patent publication US20250313563A1, “GLYCOGEN SYNTHASE KINASE 3 INHIBITORS AND USES THEREOF” (The Broad Institute, Inc., priority 2022, published 2025)
Where two headings read alike, the source gives them in different places.

How the values were obtained:
[1] = target: GSK3b (GST-full length GSK3b) (Homo sapiens (Human), UniProt P49841); assay: GSK3b TR-FRET kinase assay; assay type: biochemical
Procedure: (§1) TR-FRET Assay: The assay was performed in a white, 384 well, low volume, flat bottom plate (Grenier). After a 30 minute preincubation in assay buffer with the indicated concentration of compound, the kinase activity was initiated by the addition of the substrates. 1 nM GSK3α (GST-full length GSK3α [SignalChem G08-10G]) or 1 nM GSK3b (GST-full length GSK3b: [SignalChem G08-9G]) were then incubated at ambient temperature for 100 minutes in 10 μL of 50 mM Tris, pH 7.5, 20 mM MgCl2, 0.05 mM DTT, 100 μg/mL BSA and 1% DMSO, with 200 nM biotinylated peptide substrate (biotinylated and S645 phosphorylated glycogen synthase 631-650) and either 4 μM ATP (GSK3α, Table 16) or 2 μM ATP (GSK3b, Table 16) or 1 mM ATP (Table 17). The kinase activity was quenched with 2 μL of 250 mM EDTA. A 10 μL volume of 40 nM Strepavidin-d2, 2 nM Tb^2+-pSer641 antibody in TR-FRET Detection Buffer (Invitrogen) was then added. After 60 min at room temperature the plate was read on Envision plate reader using Ex: 340 nm, Em: 615 nm and […]. The normalized 665/615 Signal ratio versus log compound concentration was analyzed by XLFIT to yield IC50 values.

[2] = target: GSK3α (GST-full length GSK3α) (Homo sapiens (Human), UniProt P49840); assay: GSK3α TR-FRET kinase assay; assay type: biochemical
Sequence of GSK3α (GST-full length GSK3α) (P49840 whole entry): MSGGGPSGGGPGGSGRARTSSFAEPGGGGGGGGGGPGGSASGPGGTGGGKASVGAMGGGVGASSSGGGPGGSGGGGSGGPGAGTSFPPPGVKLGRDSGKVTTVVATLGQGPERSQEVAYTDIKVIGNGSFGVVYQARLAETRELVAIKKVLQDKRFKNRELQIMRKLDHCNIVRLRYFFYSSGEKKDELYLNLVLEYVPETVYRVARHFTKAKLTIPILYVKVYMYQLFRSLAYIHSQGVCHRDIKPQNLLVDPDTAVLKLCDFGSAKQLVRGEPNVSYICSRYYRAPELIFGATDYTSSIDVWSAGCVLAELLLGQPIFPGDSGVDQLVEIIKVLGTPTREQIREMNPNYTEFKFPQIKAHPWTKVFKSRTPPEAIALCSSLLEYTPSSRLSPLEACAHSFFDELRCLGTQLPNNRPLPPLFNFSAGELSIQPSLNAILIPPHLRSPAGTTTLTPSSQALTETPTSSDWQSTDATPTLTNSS
Procedure: as §1

[3] = read-out: GSK3-B (TR-FRET 1 mM ATP), GMean, IC50, 1 mM ATP, geometric mean
[4] = read-out: GSK3-A (TR-FRET 1 mM ATP), GMean, IC50, 1 mM ATP, geometric mean
[5] = 1 nM GSK3b, 2 μM ATP, 30 minute preincubation, geometric mean, read-out: GSK3-B TR-FRET BIOCHEMICAL (TR-FRET), GMean, IC50
[6] = 1 nM GSK3α, 4 μM ATP, 30 minute preincubation, geometric mean, read-out: GSK3-A TR-FRET BIOCHEMICAL (TR-FRET), GMean, IC50
[7] = 1 nM GSK3b, 2 μM ATP, 30 minute preincubation, Table 16, read-out: GSK3-B TR-FRET BIOCHEMICAL (TR-FRET)
[8] = 1 nM GSK3α, 4 μM ATP, 30 minute preincubation, Table 16, read-out: GSK3-A TR-FRET BIOCHEMICAL (TR-FRET)

Sequence of GSK3b (GST-full length GSK3b) (P49841 whole entry): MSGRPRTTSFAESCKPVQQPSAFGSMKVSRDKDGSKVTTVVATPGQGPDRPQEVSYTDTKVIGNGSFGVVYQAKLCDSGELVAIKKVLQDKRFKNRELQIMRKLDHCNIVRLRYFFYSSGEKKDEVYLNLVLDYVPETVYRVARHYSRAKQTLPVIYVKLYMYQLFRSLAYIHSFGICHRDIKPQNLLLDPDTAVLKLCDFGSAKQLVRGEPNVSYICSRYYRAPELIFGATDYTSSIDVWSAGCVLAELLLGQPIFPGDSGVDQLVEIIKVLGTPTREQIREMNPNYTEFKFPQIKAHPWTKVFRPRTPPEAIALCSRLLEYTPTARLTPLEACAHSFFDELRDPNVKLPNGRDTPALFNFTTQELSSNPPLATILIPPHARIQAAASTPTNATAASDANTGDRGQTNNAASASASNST

Structure (SMILES) | IC50 [1, 5] | IC50 [2, 6] | further results
Cn1cncc1-c1cccc([C@@]2(C)C3=C(CC(C)(C)CC3=O)Nc3n[nH]c(CC(C)(C)C)c32)c1 [Compound 126015] |  |  | IC50 [1, 3]: > 5000 nM; IC50 [2, 4]: > 5000 nM
C[S+]([O-])c1cccc(C2(C)C3=C(CC(C)(C)CC3=O)Nc3n[nH]c(CC(C)(C)C)c32)c1 (stereo not drawn) [Compound 126191] |  |  | IC50 [1, 3]: 100 to 1000 nM; IC50 [2, 4]: > 5000 nM
Cn1cc(-c2cccc([C@@]3(C)C4=C(CC(C)(C)CC4=O)Nc4n[nH]c(CC(C)(C)C)c43)c2)cn1 [Compound 126367] |  |  | IC50 [1, 3]: > 5000 nM; IC50 [2, 4]: > 5000 nM
CC(C)(C)Cc1[nH]nc2c1[C@@](C)(c1cccc(S(=O)(=O)C(F)(F)F)c1)C1=C(CC(C)(C)CC1=O)N2 [Compound 126396] |  |  | IC50 [1, 3]: > 5000 nM; IC50 [2, 4]: > 5000 nM
CC1(C)CC(=O)C2=C(C1)Nc1n[nH]c(C3CC(F)(F)C3)c1C21COc2ccccc21 (stereo not drawn) [Compound 127429] |  |  | IC50 [1, 3]: 1000 to 5000 nM; IC50 [2, 4]: > 5000 nM
CCC1(c2ccc(F)cc2)C2=C(CC(C)(C)CC2=O)Nc2n[nH]cc21 (stereo not drawn) [Compound 772965] | > 5000 nM | 1000 to 5000 nM | 
CC1(C)CC(=O)C2=C(C1)Nc1n[nH]cc1C2(C)c1cc(F)cc(F)c1 (stereo not drawn) [Compound 785735] | > 5000 nM | 100 to 1000 nM | 
CCC1(c2ccc(C)cc2)C2=C(CC(C)(C)CC2=O)Nc2n[nH]cc21 (stereo not drawn) [Compound 785739] | > 5000 nM | 100 to 1000 nM | 
CCC1(CC)C2=C(CC(C)(C)CC2=O)Nc2n[nH]c(C)c21 [Compound 786061] |  |  | IC50 [1, 7]: > 1670 nM; IC50 [2, 8]: 100 to 1000 nM
CC1(C)CC(=O)C2=C(C1)Nc1n[nH]cc1C2(C)C [Compound 786065] |  |  | IC50 ([1]; 1 nM GSK3b, 2 μM ATP, 30 minute preincubation, Table 16, read-out: GSK3-B TR-FRET BIOCHEMICAL (TR-FRET), IC50): > 1670 nM; IC50 ([2]; 1 nM GSK3α, 4 μM ATP, 30 minute preincubation, Table 16, read-out: GSK3-A TR-FRET BIOCHEMICAL (TR-FRET), IC50): 1000 to 5000 nM
Cc1[nH]nc2c1C1(CCCC1)C1=C(CC(C)(C)CC1=O)N2 [Compound 786072] |  |  | IC50 [1, 7]: ≤ 100 nM; IC50 [2, 8]: ≤ 100 nM
CC[C@@]1(c2ccccc2)C2=C(C[C@H](C)CC2=O)Nc2n[nH]cc21 [Compound 789009] | > 5000 nM | > 5000 nM | 
CC[C@]1(c2ccccc2)C2=C(C[C@H](C)CC2=O)Nc2n[nH]cc21 [Compound 789011] | > 5000 nM | > 5000 nM | 
CC[C@]1(c2ccccc2)C2=C(C[C@H](C)CC2=O)Nc2n[nH]cc21 [Compound 789013] | > 5000 nM | 100 to 1000 nM | 
C[C@@H]1CC(=O)C2=C(C1)Nc1n[nH]cc1[C@]2(C)c1ccccc1 [Compound 789331] | > 5000 nM | > 5000 nM | 
C[C@@H]1CC(=O)C2=C(C1)Nc1n[nH]cc1[C@@]2(C)c1ccccc1 [Compound 789333] | > 5000 nM | > 5000 nM | 

Structure (SMILES) | IC50 [1, 5] | IC50 [2, 6] | further results
CC1(C)CC(=O)C2=C(C1)Nc1n[nH]cc1C2(C)c1cc(Cl)cc(Cl)c1 (stereo not drawn) [Compound 789337] | 1000 to 5000 nM | 100 to 1000 nM | 
CC[C@@]1(c2ccc(C)cc2)C2=C(CC(C)(C)CC2=O)Nc2n[nH]cc21 [Compound 789457] | 1000 to 5000 nM | 100 to 1000 nM | 
CC[C@]1(c2ccc(C)cc2)C2=C(CC(C)(C)CC2=O)Nc2n[nH]cc21 [Compound 789458] | > 5000 nM | > 5000 nM | 
CC1(C)CC(=O)C2=C(C1)Nc1n[nH]cc1C2(c1ccccc1)c1ccccc1 [Compound 789461] | > 5000 nM | 1000 to 5000 nM | 
CCC1(c2ccccc2)C2=C(CCCC2=O)Nc2n[nH]cc21 (stereo not drawn) [Compound 789497] | > 5000 nM | 1000 to 5000 nM | 
CC[C@]1(c2cccc(C)c2)C2=C(CC(C)(C)CC2=O)Nc2n[nH]cc21 [Compound 789561] | > 5000 nM | 1000 to 5000 nM | 
CC[C@]1(c2ccccc2)C2=C(CC3(CCCC3)CC2=O)Nc2n[nH]cc21 [Compound 789563] | > 5000 nM | > 5000 nM | 
CCC1(c2cccc(Cl)c2)C2=C(CC(C)(C)CC2=O)Nc2n[nH]c(C)c21 (stereo not drawn) [Compound 790611] | > 5000 nM | > 5000 nM | 
CC[C@]1(c2ccccc2)C2=C(CC3(CC3)CC2=O)Nc2n[nH]cc21 [Compound 790616] | > 5000 nM | > 5000 nM | 
CCC1(c2ccn(C)n2)C2=C(CC(C)(C)CC2=O)Nc2n[nH]cc21 (stereo not drawn) [Compound 790619] | > 5000 nM | 1000 to 5000 nM | 
CC1(C)CC(=O)C2=C(C1)Nc1n[nH]c(C(F)(F)F)c1C21CCCOc2ccccc21 (stereo not drawn) [Compound 790632] | > 5000 nM | > 5000 nM | 
CC1(C)CC(=O)C2=C(C1)Nc1n[nH]cc1C21CCCC1 [Compound 790666] |  |  | IC50 [1, 7]: ≤ 100 nM; IC50 [2, 8]: ≤ 100 nM
CCC1(c2cccc(Br)c2)C2=C(CC(C)(C)CC2=O)Nc2n[nH]cc21 (stereo not drawn) [Compound 790734] | > 5000 nM | 100 to 1000 nM | 
CC(C)(C)Cc1[nH]nc2c1C1(CCc3c(F)cccc31)C1=C(CC(C)(C)CC1=O)N2 (stereo not drawn) [Compound 791256] | 1000 to 5000 nM | > 1700 nM | 
CC[C@]1(c2ccccc2)C2=C(C[C@H](c3ccccc3)CC2=O)Nc2n[nH]cc21 [Compound 791262] | > 5000 nM | > 5000 nM | 
CC[C@@]1(c2ccccc2)C2=C(C[C@H](c3ccccc3)CC2=O)Nc2n[nH]cc21 [Compound 791263] | > 5000 nM | > 5000 nM | 

Second part, led by results:

IC50 [1, 5] | IC50 [2, 6] | Structure (SMILES) | further results
100 to 1000 nM | ≤ 100 nM | Cc1cccc(C2(C)C3=C(CC(C)(C)CC3=O)Nc3n[nH]cc32)c1 (stereo not drawn) [Compound 785736] | 
100 to 1000 nM | ≤ 100 nM | CCC1(c2ccccc2)C2=C(CC3(CCCC3)CC2=O)Nc2n[nH]cc21 (stereo not drawn) [Compound 785737] | 
100 to 1000 nM | ≤ 100 nM | CCC1(c2cccc(C)c2)C2=C(CC(C)(C)CC2=O)Nc2n[nH]cc21 (stereo not drawn) [Compound 785738] | 
100 to 1000 nM | 100 to 1000 nM | CC[C@@]1(c2ccccc2)C2=C(C[C@@H](C)CC2=O)Nc2n[nH]cc21 [Compound 789010] | 
100 to 1000 nM | ≤ 100 nM | CC1(C)CC(=O)C2=C(C1)Nc1n[nH]cc1C2(C)c1cccc(Br)c1 (stereo not drawn) [Compound 789277] | 
100 to 1000 nM | ≤ 100 nM | CCC1(c2cccc(Br)c2)C2=C(CC(C)(C)CC2=O)Nc2n[nH]cc21 (stereo not drawn) [Compound 789312] | 
1000 to 5000 nM | 100 to 1000 nM | CCC1(c2ccccc2)C2=C(CC3(CC3)CC2=O)Nc2n[nH]cc21 (stereo not drawn) [Compound 789330] | 
100 to 1000 nM | 100 to 1000 nM | C[C@H]1CC(=O)C2=C(C1)Nc1n[nH]cc1[C@]2(C)c1ccccc1 [Compound 789332] | 
1000 to 5000 nM | 100 to 1000 nM | C[C@H]1CC(=O)C2=C(C1)Nc1n[nH]cc1[C@@]2(C)c1ccccc1 [Compound 789334] | 
≤ 100 nM | ≤ 100 nM | CCC1(c2ccccc2)C2=C(CC(C)(C)CC2=O)Nc2n[nH]c(Br)c21 (stereo not drawn) [Compound 789459] | 
100 to 1000 nM | 100 to 1000 nM | CC1(c2ccccc2)C2=C(CC3(CCCC3)CC2=O)Nc2n[nH]cc21 (stereo not drawn) [Compound 789460] | 
100 to 1000 nM | 100 to 1000 nM | CC1(C)CC(=O)C2=C(C1)Nc1n[nH]cc1C2(C)c1cccc(-c2ccccc2)c1 (stereo not drawn) [Compound 789513] | 
100 to 1000 nM | 100 to 1000 nM | CCC1(c2cccc(-c3ccccc3)c2)C2=C(CC(C)(C)CC2=O)Nc2n[nH]cc21 (stereo not drawn) [Compound 789514] | 
100 to 1000 nM |  | CCC1(c2cccc(C)c2)C2=C(CC(C)(C)CC2=O)Nc2n[nH]cc21 (stereo not drawn) [Compound 789560] | IC50 [1, 3]: > 5000 nM; IC50 [2, 4]: 1000 to 5000 nM
100 to 1000 nM | ≤ 100 nM | CC[C@@]1(c2ccccc2)C2=C(CC3(CCCC3)CC2=O)Nc2n[nH]cc21 [Compound 789562] | 
≤ 100 nM | ≤ 100 nM | CCC1(c2cccc(Cl)c2)C2=C(CC(C)(C)CC2=O)Nc2n[nH]c(Br)c21 (stereo not drawn) [Compound 789564] | 
100 to 1000 nM | ≤ 100 nM | CC[C@@]1(c2ccccc2)C2=C(CC3(CC3)CC2=O)Nc2n[nH]cc21 [Compound 790615] | 
≤ 100 nM | ≤ 100 nM | CCC1(c2cccc(C(F)(F)F)c2)C2=C(CC3(CCCC3)CC2=O)Nc2n[nH]cc21 (stereo not drawn) [Compound 790617] | 
100 to 1000 nM | ≤ 100 nM | CC1(C)CC(=O)C2=C(C1)Nc1n[nH]cc1C2(C)c1cccc(-c2ccncc2)c1 (stereo not drawn) [Compound 790730] | 
≤ 100 nM | ≤ 100 nM | CCC1(c2cccc(Br)c2)C2=C(CC(C)(C)CC2=O)Nc2n[nH]cc21 (stereo not drawn) [Compound 790733] | IC50 [1, 3]: 1000 to 5000 nM; IC50 [2, 4]: 100 to 1000 nM
≤ 100 nM | ≤ 100 nM | CCC1(c2cccc(C(F)(F)F)c2)C2=C(CC(C)(C)CC2=O)Nc2n[nH]cc21 (stereo not drawn) [Compound 790754] | IC50 [1, 3]: 1000 to 5000 nM; IC50 [2, 4]: 100 to 1000 nM
